Experimental data reported in US11414438B2, “Silylethynyl hetaryl compounds as nitrification inhibitors” (BASF SE, priority 2018, dated 2022).

Key:
nitrification = assay: inhibition of nitrification in soil incubation (ammonium and nitrate content after 14 days); conditions: 20° C., 10 mg ammoniumsulfate-N; for NI @ 0.3%: compound at 0.3% of nitrogen N; for NI @ 1%: compound at 1% of nitrogen N; for NI @ 0.1%: compound at 0.1% of nitrogen N; for NI @ 3%: compound at 3% of nitrogen N
Description: The compounds of the invention have been tested as follows in terms of the inhibition of nitrification:
100 g soil is filled into 500 ml plastic bottles (e.g. soil sampled from the field) and is moistened to 50% water holding capacity. The soil is incubated at 20° C. for two weeks to activate the microbial biomass. 1 ml test solution, containing the compound in the appropriate concentration (usually 0.3 or 1% of nitrogen N), or DMSO and 10 mg nitrogen in the form of ammoniumsulfate-N is added to the soil and everything mixed well. Bottles are capped but loosely to allow air exchange. The bottles are then incubated at 20° C. for 0 and 14 days.
For analysis 300 ml of a 1% K2SO4-solution is added to the bottle containing the soil and shaken for 2 hours in a horizontal shaker at 150 rpm. Then the whole solution is filtered through a filter (Macherey-Nagel Filter MN 807¼). Ammonium and nitrate content is then analyzed in the filtrate in an autoanalyzer at 550 nm (Merck, AA11).
The inhibition (NI @ a specified concentration) is calculated as follows: […]

[1] = volatility: weight loss from open vials in the hood; format: physicochemical; conditions: 251 mg in 10 ml vials open in the hood
Description: The compounds of the invention have been tested in terms of their volatility. 251 mg of the compounds were provided in 10 ml vials open in the hood and tested in comparison to 5-chloro-2-ethynyl pyridine (Ref.-1). The weight loss was determined after 1 week.

SMILES | NI @ 0.3% (nitrification) | NI @ 1% (nitrification) | NI @ 0.1% (nitrification) | NI @ 3% (nitrification) | % weight loss after 1 week [1]
C[Si](C)(C#Cc1ccccn1)c1ccccc1 [No. 9] | 83 | 80 | – | – | –
C[Si](C)(C)C#Cc1ccccn1 [No. 1] | 77 | – | 54 | 86 | –
C[Si](C)(C#Cc1ccccn1)CCl.Cl [No. 3] | 80 | 91 | – | – | –
CC(C)(C)[Si](C)(C)C#Cc1ccccn1 [No. 4] | 11 | 28 | – | – | –
C[Si](C)(C#Cc1ccccn1)O[Si](C)(C)C#Cc1ccccn1 [No. 5] | 78 | 83 | – | – | –
C[Si](C)(C)C#Cc1ccc(Cl)cn1 [No. 10] | 75 | – | 61 | 85 | 8%
C#Cc1ccc(Cl)cn1 [Ref.-1, 5-chloro-2-ethynyl pyridine, reference compound] | – | – | – | – | 53%
C[Si](C)(C#Cc1ccccn1)O[Si](C)(C)O[Si](C)(C)C#Cc1ccccn1 [No. 6] | 51 | 75 | – | – | –
C[Si](C)(C#Cc1ccccn1)C[Si](C)(C)C#Cc1ccccn1 [No. 8] | 16 | 43 | – | – | –
C[SiH](C)C#Cc1ccccn1 [No. 2] | 82 | 94 | – | – | –
Cc1ccc(C#C[Si](C)(C)C)nc1 [No. 11] | 63 | 77 | – | – | –
C[Si](C)(C)C#Cc1cnccn1 [No. 12] | 98 | – | 71 | – | 24%
C[Si](C)(C#Cc1ccccn1)O[Si](C)(C)O[Si](C)(C)O[Si](C)(C)C#Cc1ccccn1 [No. 7] | 31 | 63 | – | – | –
